Our source for the IC50, EC50 and Kd values is US20200385371A1 (Propellon Therapeutics Inc., priority 2017, published 2020).

In experiment [1] the target is T1, WDR5 (Homo sapiens, UniProt P61964). Nature of the experiment: Fluorescence Polarization (FP) binding assay. The method, then: H3 (1-15) ([…]), and 9-Ala-FAM ((Ac)-[…]-(Ahx-Ahx)-K(5,6-FAM)) (where Ahx represents 6 amino hexanoic acid linkers) peptides for WDR5 were synthesized, N-terminal-labeled with isothiocyanate-fluorescein, and purified by Tufts University Core Services (Boston, Mass.). Compound binding assays were performed at a constant labeled peptide concentration of 30 or 20 nM for H3 (1-15) and 9-Ala-FAM respectively. WDR5 concentrations of 0.3 μM for H3 (1-15) and 0.05 μM for 9-Ala-FAM were used. For both the H3 (1-15) and 9-Ala-FAM peptides, 80 mM sodium phosphate buffer (pH 6.5), 20 mM KCl, and 0.008% Triton X-100 was used. For the H3 (1-15) peptide, FP assays were measured in 10 μl aliquots in 384-well Axygen plates using a Synergy 4 microplate reader (BioTek) with an excitation wavelength of 485 nm and emission wavelength of 528 nm. For the 9-Ala-FAM peptide, FP assays were measured in 125 μl aliquots in 96 well Microfluor plates using a ViewLux instrument (Perkin Elmer) with an excitation wavelength of 480 nm and emission wavelength of 540 nm. To determine Kdsp values, the data were fit to a hyperbolic function using Sigma Plot software (Systat Software). The Kdisp values represent the average of quadruplicate measurements.
For orientation: In fluorescence polarisation assays a small probe gives low polarisation when free and higher when bound to something large.

The next experiment has as its system MV4-11 cells. Nature of the experiment: Cell proliferation assay (ATPlite). The format is cell-based. As to conditions: Homo sapiens; for EC50: 120 h, MV4-11 cells, five days, read-out: GI MV411 EC50; for IC50: MV4-11, Table 2. The procedure:
MV4-11 cells were seeded into a 96-well plate at 1,000 cells/well in 150 μl medium (Alpha-MEM containing 10% FBS, 100 μg/ml Normocin, and 50 μg/ml Gentamycin, Invitrogen). A HP D300 digital dispenser was used to dose cells with DMSO or test compounds across a 10-point range of concentrations (high dose of 10 μM), and cultures were grown in a humidified 5% CO2 incubator at 37° C. After five days, plates were removed from incubator and equilibrated to room temperature. An equal volume of ATPlite assay reagent was added to each well, and samples were processed according to manufacturer's instructions (Perkin Elmer). Luminescent signal was measured using an Envision plate reader equipped with a US-Luminescence detector.

Experiment [2] deals with T1, WDR5. The experiment can be described thus: Surface Plasmon Resonance (SPR) assay. The format is binding. Details: Full length WDR5 with an N-terminal His tag and C-terminal AviTag; His tag (N); made in house; host or cells: E. coli. The method, then:
Exemplary compounds of the application were dissolved in 100% DMSO at 10 mM, assayed fresh, and then stored at −20° C. for repeat studies and other experiments. Full length WDR5 with an N-terminal His tag and C-terminal AviTag (Avidity Inc.) was expressed in E. coli with coexpression of BirA to biotin label the protein in vivo. Purification was via Ni-NTA.
SPR studies were performed using a Biacore™ T200 instrument (GE Health Sciences Inc.). Biotinylated WDR5 protein (approximately 3000RU) was stably captured to streptavidin coupled SA chips according to the manufacture's protocol (GE Health Sciences Inc.). The running buffer used was HBS-EP (20 mM Hepes pH 7.4, 150 mM NaCl, 3 mM EDTA, 0.05% P-20) plus 5% DMSO with a flow rate of 40 μl/min. For SPR analysis, 5 different concentrations of each exemplary compound of the application were sprayed into 96 or 384 well plates using an HP D300 digital dispenser. The concentration ranged from about 195 nM to about 12 nM in a two-fold series. […] Curve fitting and KD calculations were performed with the Biacore T200 Evalutation software (GE Health Sciences Inc).

Where two headings read alike, the source gives them in different places.

`C[C@H]1CN(c2ccc(-c3c(F)cc(N4CCN(C)[C@@H](C)C4)c(NC(=O)c4ccc(F)cc4C(F)F)c3F)cn2)CCO1` [Example 179, 2-(Difluoromethyl)-N-(6-((S)-3,4-dimethylpiperazin-1-yl)-2,4-difluoro-3-(6-((S)-2-methylmorpholino)pyridin-3-yl)phenyl)-4-fluorobenzamide]: the half-maximal inhibitory concentration (IC50) at WDR5 [1] came to 20.1 nM. Also, the EC50 in the experiment on MV4-11 cells is 141 nM. Moreover, at WDR5 [2] (read-out: SPR Kd), the dissociation constant (Kd) amounted to 1.59 nM.
For `C[C@@H]1CN(c2cc(F)c(-c3ccc(C(N)=O)c(F)c3F)c(F)c2NC(=O)c2c[nH]c(=O)cc2C(F)(F)F)C[C@H](C)N1C` [Example 26, N-(4′-carbamoyl-2,2′,3′,6-tetrafluoro-4-((3S,5R)-3,4,5-trimethylpiperazin-1-yl)-[1,1′-biphenyl]-3-yl)-6-oxo-4-(trifluoromethyl)-1,6-dihydropyridine-3-carboxamide] the same measures were 22.2 nM, 316 nM and 4.49 nM.
Take `C[C@@H]1CN(c2cc(F)c(C3=CCCN(c4ncc(C#N)s4)C3)c(F)c2NC(=O)c2c[nH]c(=O)cc2C(F)(F)F)C[C@H](C)N1C` [Example 149, N-(3-(1-(5-cyanothiazol-2-yl)-1,2,5,6-tetrahydropyridin-3-yl)-2,4-difluoro-6-((3S,5R)-3,4,5-trimethylpiperazin-1-yl)phenyl)-6-oxo-4-(trifluoromethyl)-1,6-dihydropyridine-3-carboxamide]: the IC50 at WDR5 [1] was 14.6 nM. Further, the EC50 in the experiment on MV4-11 cells was determined as 106 nM. On WDR5 [2] (read-out: SPR Kd), the dissociation constant (Kd) came to 1.8 nM.
The matching figures for `C[C@H]1CN(c2cc(F)c(C3=CCN(c4ncc(F)cn4)C3)c(F)c2NC(=O)c2c[nH]c(=O)cc2C(F)(F)F)CCN1C` [Example 80, (S)—N-(6-(3,4-dimethylpiperazin-1-yl)-2,4-difluoro-3-(1-(5-fluoropyrimidin-2-yl)-2,5-dihydro-1H-pyrrol-3-yl)phenyl)-6-oxo-4-(trifluoromethyl)-1,6-dihydropyridine-3-carboxamide]: 23 nM, 58.3 nM and 1.27 nM.
For the compound `C[C@H]1CN(c2cc(F)c(C3=CCN(C(=O)OC4CC(F)(F)C4)C3)c(F)c2NC(=O)c2c[nH]c(=O)cc2C(F)(F)F)CCN1C` [Example 45, 3,3-Difluorocyclobutyl (S)-3-(4-(3,4-dimethylpiperazin-1-yl)-2,6-difluoro-3-(6-oxo-4-(trifluoromethyl)-1,6-dihydropyridine-3-carboxamido)phenyl)-2,5-dihydro-1H-pyrrole-1-carboxylate], on WDR5 [1], the IC50 came out at 12.1 nM. In addition, in the experiment with MV4-11 cells, the 50% effective concentration (EC50) was 76.7 nM. Moreover, on WDR5 [2] (read-out: SPR Kd), the Kd came to 1.32 nM.
With `C[C@@H]1CN(c2cc(F)c(-c3cnc(N4CCOCC4)nc3)cc2NC(=O)c2c[nH]c(=O)cc2C(F)(F)F)C[C@H](C)N1C` [reference compound], the midpoint of inhibition with MV4-11 cells, the IC50, lay at 25 nM.
In the experiment on MV4-11 cells, `C[C@@H]1CN(c2c(F)cc(-c3cnc(N4CCOCC4)nc3)cc2NC(=O)c2c[nH]c(=O)cc2C(F)(F)F)C[C@H](C)N1C` [reference compound] registered an IC50 of 3540 nM. Moreover, the Kd on WDR5 [2] (Table 2, effect of difluoro substitution, read-out: KD (SPR)) came to 77 nM.
Consider `C[C@@H]1CN(c2cc(F)c(-c3ccc(N4CCOCC4)cc3)c(F)c2NC(=O)c2c[nH]c(=O)cc2C(F)(F)F)C[C@H](C)N1C` [Example 5, N-(2,6-difluoro-4′-morpholino-4-((3S,5R)-3,4,5-trimethylpiperazin-1-yl)-[1,1′-biphenyl]-3-yl)-6-oxo-4-(trifluoromethyl)-1,6-dihydropyridine-3-carboxamide], for which the IC50 at WDR5 [1] was found to be 32.2 nM. In addition, the Kd at WDR5 [2] (read-out: SPR Kd) is 3.55 nM.
The matching figures for `C[C@@H]1CN(c2cc(F)c(-c3ccnc(OCC4CC4)c3)c(F)c2NC(=O)c2c[nH]c(=O)cc2C(F)(F)F)C[C@H](C)N1C` [Example 3, N-(3-(2-(cyclopropylmethoxy)pyridin-4-yl)-2,4-difluoro-6-((3S,5R)-3,4,5-trimethylpiperazin-1-yl)phenyl)-6-oxo-4-(trifluoromethyl)-1,6-dihydropyridine-3-carboxamide]: 26.6 nM and 3.39 nM.
For the compound `C[C@@H]1CN(c2cc(F)c(-c3ccc(N4CCOCC4)nc3)c(F)c2NC(=O)c2c[nH]c(=O)cc2C(F)(F)F)C[C@H](C)N1C` [Example 4, N-(2,4-difluoro-3-(6-morpholinopyridin-3-yl)-6-((3S,5R)-3,4,5-trimethylpiperazin-1-yl)phenyl)-6-oxo-4-(trifluoromethyl)-1,6-dihydropyridine-3-carboxamide], the half-maximal inhibitory concentration (IC50) at WDR5 [1] amounted to 31.8 nM. For the same compound, the Kd on WDR5 [2] (read-out: SPR Kd) came out at 2.02 nM.
On to `C[C@@H]1CN(c2cc(F)c(-c3cnc(N4CCO[C@@H](C)C4)nc3)c(F)c2NC(=O)c2ccc(F)cc2C(F)(F)F)C[C@H](C)N1C` [Example 16, N-(2,4-difluoro-3-(2-((S)-2-methylmorpholino)pyrimidin-5-yl)-6-((3S,5R)-3,4,5-trimethylpiperazin-1-yl)phenyl)-4-fluoro-2-(trifluoromethyl)benzamide formic acid], for which, at WDR5 [1], the IC50 was 6.99 nM. The dissociation constant (Kd) at WDR5 [2] (read-out: SPR Kd) amounted to 1.22 nM.
The matching figures for `C[C@@H]1CN(c2cc(F)c(C3=CCCN(c4ncccn4)C3)c(F)c2NC(=O)c2c[nH]c(=O)cc2C(F)(F)F)C[C@H](C)N1C` [Example 15, N-(2,4-difluoro-3-(1-(pyrimidin-2-yl)-1,2,5,6-tetrahydropyridin-3-yl)-6-((3S,5R)-3,4,5-trimethylpiperazin-1-yl)phenyl)-6-oxo-4-(trifluoromethyl)-1,6-dihydropyridine-3-carboxamide]: 21.1 nM and 1.69 nM.
On to `C[C@@H]1CN(c2ncc(-c3c(F)cc(N4C[C@@H](C)N(C)[C@@H](C)C4)c(NC(=O)c4ccc(F)cc4C(F)(F)F)c3F)cn2)CCO1` [Example 18, N-(2,4-difluoro-3-(2-((R)-2-methylmorpholino)pyrimidin-5-yl)-6-((3S,5R)-3,4,5-trimethylpiperazin-1-yl)phenyl)-4-fluoro-2-(trifluoromethyl)benzamide formic acid], for which the IC50 at WDR5 [1] was found to be 11 nM. Moreover, the Kd at WDR5 [2] (read-out: SPR Kd) came out at 1.71 nM.
In the case of `C[C@@H]1CN(c2cc(F)c(C3=CCCN(C(=O)OC4(C)CCC4)C3)c(F)c2NC(=O)c2c[nH]c(=O)cc2C(F)(F)F)C[C@H](C)N1C` [Example 14, 1-Methylcyclobutyl 5-(2,6-difluoro-3-(6-oxo-4-(trifluoromethyl)-1,6-dihydropyridine-3-carboxamido)-4-((3S,5R)-3,4,5-trimethylpiperazin-1-yl)phenyl)-3,6-dihydropyridine-1(2H)-carboxylate], the IC50 on WDR5 [1] amounted to 10.2 nM. Further, the Kd on WDR5 [2] (read-out: SPR Kd) was 1.88 nM.
For the compound `C[C@@H]1CN(c2cc(F)c(-c3cnc(N4CCO[C@@H](C)C4)nc3)c(F)c2NC(=O)c2cn(C)c(=O)cc2C(F)(F)F)C[C@H](C)N1C` [Example 12, N-(2,4-difluoro-3-(2-((S)-2-methylmorpholino)pyrimidin-5-yl)-6-((3S,5R)-3,4,5-trimethylpiperazin-1-yl)phenyl)-1-methyl-6-oxo-4-(trifluoromethyl)-1,6-dihydropyridine-3-carboxamide formic Acid], the IC50 on WDR5 [1] was 24.6 nM. At WDR5 [2] (read-out: SPR Kd), the Kd turned out to be 1.42 nM.
The matching figures for `C[C@@H]1CN(c2cc(F)c(C3=CCCN(C(=O)OC4(C)CCC4)C3)c(F)c2NC(=O)c2c[nH]c(=O)cc2C(F)F)C[C@H](C)N1C` [Example 22, 1-Methylcyclobutyl 5-(3-(4-(difluoromethyl)-6-oxo-1,6-dihydropyridine-3-carboxamido)-2,6-difluoro-4-((3S,5R)-3,4,5-trimethylpiperazin-1-yl)phenyl)-3,6-dihydropyridine-1(2H)-carboxylate]: 23 nM and 1.74 nM.

One may read the IC50 as the concentration that gives 50% inhibition. By EC50 is commonly meant the midpoint of the concentration-response curve. One may read the Kd as a measure of binding affinity in units of concentration.
